Laboratory results as given in paper PMC10620772, “Design, synthesis, and biological evaluation of new pyrimidine-5-carbonitrile derivatives as novel anti-cancer, dual EGFR^WT/COX-2 inhibitors with docking studies” (RSC Advances, 2023).

Columns and labels:
Test in all cases: NCI60 antitumor screening
Format in all cases: cell-based, human
CCRF-CEM = system: CCRF-CEM
HL-60(TB) = system: HL-60(TB)
MOLT-4 = system: MOLT-4
RPMI-8226 = system: RPMI-8226
A549/ATCC = system: A549/ATCC
HOP-92 = system: HOP-92
NCI-H226 = system: NCI-H226
NCI-H23 = system: NCI-H23
NCI-H522 = system: NCI-H522
HCC-2998 = system: HCC-2998
HCT-15 = system: HCT-15
HT29 = system: HT29
KM12 = system: KM12
SF-268 = system: SF-268
SF-295 = system: SF-295
SNB-19 = system: SNB-19
SNB-75 = system: SNB-75
M14 = system: M14
SK-MEL-2 = conditions: Homo sapiens; 10 μM single dose; SK-MEL-2 (melanoma); read-out: growth inhibition percent (GI%)
SK-MEL-5 = conditions: Homo sapiens

With `N#Cc1c(-c2ccc(F)cc2)nc(SCc2ccc(F)cc2)nc1N1CCNCC1` [4f, 2-((4-Fluorobenzyl)thio)-4-(4-fluorophenyl)-6-(piperazin-1-yl) pyrimidine-5-carbonitrile] the GI% (CCRF-CEM; 10 μM one-dose) was 95.51%, the GI50 (CCRF-CEM; Homo sapiens, CCRF-CEM, five-dose) was 14.9 µM and the CC50 (CCRF-CEM; Homo sapiens, CCRF-CEM, five-dose, read-out: LC50 (the source's name)) was 76 µM. For the same compound, the inhibition at 10 µM (CCRF-CEM; Homo sapiens, 10 μM single dose, CCRF-CEM (leukaemia), read-out: growth inhibition percent (GI%)) was 95.5%, the TGI (CCRF-CEM; five-dose) was 33.60 µM and the GI50 (HL-60(TB); Homo sapiens, HL-60, five-dose) was 7.66 µM. It also gave a CC50 (HL-60(TB); Homo sapiens, HL-60, five-dose, read-out: LC50 (the source's name)) of 63.8 µM, an inhibition at 10 µM (HL-60(TB); Homo sapiens, 10 μM single dose, HL-60(TB) (leukaemia), read-out: growth inhibition percent (GI%)) of over 100% and a TGI (HL-60(TB); five-dose) of 24.00 µM. For the same compound, the GI% (MOLT-4; 10 μM one-dose) was 92.21%, the GI50 (MOLT-4; Homo sapiens, MOLT-4, five-dose) was 10.5 µM and the CC50 (MOLT-4; Homo sapiens, MOLT-4, five-dose, read-out: LC50 (the source's name)) was 64.4 µM. The inhibition at 10 µM (MOLT-4; Homo sapiens, 10 μM single dose, MOLT-4 (leukaemia), read-out: growth inhibition percent (GI%)) was 92.2%, the TGI (MOLT-4; five-dose) was 26.00 µM and the GI50 (RPMI-8226; Homo sapiens, RPMI-8226, five-dose) was 6.75 µM. For the same compound, the CC50 (RPMI-8226; Homo sapiens, RPMI-8226, five-dose, read-out: LC50 (the source's name)) was 74.4 µM, the inhibition at 10 µM (RPMI-8226; Homo sapiens, 10 μM single dose, RPMI-8226 (leukaemia), read-out: growth inhibition percent (GI%)) was over 100% and the TGI (RPMI-8226; five-dose) was 24.60 µM. The GI50 (A549/ATCC; Homo sapiens, A549, five-dose) was 11.5 µM, the LC50 (concentration killing 50% of cells) (A549/ATCC; Homo sapiens, A549, five-dose) was 54.2 µM and the inhibition at 10 µM (A549/ATCC; Homo sapiens, 10 μM single dose, A549/ATCC (non-small cell lung cancer), read-out: growth inhibition percent (GI%)) was over 100%. For the same compound, the TGI (A549/ATCC; five-dose) was 25.00 µM, the GI50 (HOP-92; Homo sapiens, HOP-92, five-dose) was 7.64 µM and the CC50 (HOP-92; Homo sapiens, HOP-92, five-dose, read-out: LC50 (the source's name)) was 53.4 µM. The inhibition at 10 µM (HOP-92; Homo sapiens, 10 μM single dose, HOP-92 (non-small cell lung cancer), read-out: growth inhibition percent (GI%)) was over 100%, the TGI (HOP-92; five-dose) was 22.10 µM and the GI50 (NCI-H226; Homo sapiens, NCI-H226, five-dose) was 15.9 µM. It also gave a CC50 (NCI-H226; Homo sapiens, NCI-H226, five-dose, read-out: LC50 (the source's name)) of 80.3 µM, an inhibition at 10 µM (NCI-H226; Homo sapiens, 10 μM single dose, NCI-H226 (non-small cell lung cancer), read-out: growth inhibition percent (GI%)) of 23.1% and a TGI (NCI-H226; five-dose) of 35.70 µM. For the same compound, the GI50 (NCI-H23; Homo sapiens, NCI-H23, five-dose) was 16 µM, the CC50 (NCI-H23; Homo sapiens, NCI-H23, five-dose, read-out: LC50 (the source's name)) was 57.5 µM and the inhibition at 10 µM (NCI-H23; Homo sapiens, 10 μM single dose, NCI-H23 (non-small cell lung cancer), read-out: growth inhibition percent (GI%)) was over 100%. It also gave a TGI (NCI-H23; five-dose) of 30.40 µM, a GI50 (NCI-H522; Homo sapiens, NCI-H522, five-dose) of 13.9 µM and a CC50 (NCI-H522; Homo sapiens, NCI-H522, five-dose, read-out: LC50 (the source's name)) of 64.3 µM. The inhibition at 10 µM (NCI-H522; Homo sapiens, 10 μM single dose, NCI-H522 (non-small cell lung cancer), read-out: growth inhibition percent (GI%)) was over 100%, the TGI (NCI-H522; five-dose) was 29.90 µM and the GI50 (HCC-2998; Homo sapiens, HCC 2998, five-dose) was 2.53 µM. The CC50 (HCC-2998; Homo sapiens, HCC 2998, five-dose, read-out: LC50 (the source's name)) was 6.27 µM, the inhibition at 10 µM (HCC-2998; Homo sapiens, 10 μM single dose, HCC-2998 (colon cancer), read-out: growth inhibition percent (GI%)) was over 100% and the TGI (HCC-2998; five-dose) was 3.22 µM. The GI50 (HCT-15; Homo sapiens, HCT-15, five-dose) was 11.7 µM, the CC50 (HCT-15; Homo sapiens, HCT-15, five-dose, read-out: LC50 (the source's name)) was 51.8 µM and the inhibition at 10 µM (HCT-15; Homo sapiens, 10 μM single dose, HCT-15 (colon cancer), read-out: growth inhibition percent (GI%)) was over 100%. For the same compound, the TGI (HCT-15; five-dose) was 24.60 µM, the inhibition at 10 µM (HT29; Homo sapiens, HT-29, 10 μM single dose, HT29 (colon cancer), read-out: growth inhibition percent (GI%)) was over 100% and the GI50 (HT29; Homo sapiens, HT-29, five-dose) was 4.87 µM. For the same compound, the CC50 (HT29; Homo sapiens, HT-29, five-dose, read-out: LC50 (the source's name)) was 51.7 µM, the TGI (HT29; five-dose) was 17.30 µM and the GI50 (KM12; Homo sapiens, KM12, five-dose) was 18 µM. For the same compound, the CC50 (KM12; Homo sapiens, KM12, five-dose, read-out: LC50 (the source's name)) was 63 µM, the inhibition at 10 µM (KM12; Homo sapiens, 10 μM single dose, KM12 (colon cancer), read-out: growth inhibition percent (GI%)) was over 100% and the TGI (KM12; five-dose) was 33.60 µM. For the same compound, the GI50 (SF-268; Homo sapiens, SF-268, five-dose) was 14.1 µM, the CC50 (SF-268; Homo sapiens, SF-268, five-dose, read-out: LC50 (the source's name)) was 67.5 µM and the inhibition at 10 µM (SF-268; Homo sapiens, 10 μM single dose, SF-268 (CNS cancer), read-out: growth inhibition percent (GI%)) was 58.5%. It also gave a TGI (SF-268; five-dose) of 30.90 µM, a GI50 (SF-295; Homo sapiens, SF-295, five-dose) of 16.6 µM and a CC50 (SF-295; Homo sapiens, SF-295, five-dose, read-out: LC50 (the source's name)) of 57.5 µM. The inhibition at 10 µM (SF-295; Homo sapiens, 10 μM single dose, SF-295 (CNS cancer), read-out: growth inhibition percent (GI%)) was over 100%, the TGI (SF-295; five-dose) was 30.90 µM and the GI50 (SNB-19; Homo sapiens, SNB-19, five-dose) was 14.9 µM. The CC50 (SNB-19; Homo sapiens, SNB-19, five-dose, read-out: LC50 (the source's name)) was 58.1 µM, the inhibition at 10 µM (SNB-19; Homo sapiens, 10 μM single dose, SNB-19 (CNS cancer), read-out: growth inhibition percent (GI%)) was 50.4% and the TGI (SNB-19; five-dose) was 29.40 µM. For the same compound, the GI% (SNB-75; 10 μM one-dose) was 80.66%, the inhibition at 10 µM (SNB-75; Homo sapiens, 10 μM single dose, SNB-75 (CNS cancer), read-out: growth inhibition percent (GI%)) was 80.7% and the GI50 (M14; Homo sapiens, M14, five-dose) was 13.6 µM. For the same compound, the CC50 (M14; Homo sapiens, M14, five-dose, read-out: LC50 (the source's name)) was 52.9 µM, the inhibition at 10 µM (M14; Homo sapiens, 10 μM single dose, M14 (melanoma), read-out: growth inhibition percent (GI%)) was over 100% and the TGI (M14; five-dose) was 26.80 µM. The inhibition at 10 µM (SK-MEL-2) was over 100%, the GI50 (SK-MEL-5; SK-MEL-5, five-dose) was 16.8 µM and the CC50 (SK-MEL-5; SK-MEL-5, five-dose, read-out: LC50 (the source's name)) was 55.4 µM. It also gave an inhibition at 10 µM (SK-MEL-5; 10 μM single dose, SK-MEL-5 (melanoma), read-out: growth inhibition percent (GI%)) of over 100%.
